ChEMBL document CHEMBL3507680, “University of Dundee, Gates Library screen for HepG2 cell viability”

Experiment: Human HepG2 cell viability assay in 384 well format
Assay type: toxicity, cell-based
Set-up: dose 125 nL, time 70.5 hour; concentration not given beside the values
Settings: HepG2 cells, read-out: Inhibition

Compound	cytotoxicity at 70.5 h
O=C(CO)N1CC2(CCN(c3ccccc3)C2)C1	-6.59%
CC(=O)N1CCC2(CC1)c1ncc(-c3ccccc3)n1CCN2C(C)=O	-5.58%
CN(C)c1nc(N2CCCC2)nc2c1CCN(C(=O)c1ccoc1)CC2	0.617%
O=C1NCCO[C@H]2CN(C(=O)CCc3ccc(Cl)cc3)CC[C@@H]12	-17.3%
O=C1CC[C@@H]2[C@@H](CCN2C(=O)C2CCOCC2)N1CC1CC1	-8.18%
CCOc1ccc(CCC(=O)N2CC[C@H]3C(=O)NCCO[C@H]3C2)cc1	-10.6%
O=C1CC(c2cccs2)Cc2[nH]c(=O)ccc21 (centres undefined)	-7.47%
O=C1CC(c2cccs2)Cc2[nH]c(=O)c(C(=O)NC3CCCC3)cc21 (centres undefined)	-12.4%
COc1cc(CCO)c(OC)c2c1OCO2	-7.84%
COc1cccc(C2SCC(=O)Nc3ccsc32)c1OC (centres undefined)	1.7%
O=C1CC(c2ccc(C(=O)O)cc2)c2ncn(-c3cccnc3)c2N1 (centres undefined)	-2.41%
COc1cc(C2SCC(=O)Nc3ccsc32)cc(OC)c1O (centres undefined)	-4.76%
COCCNC(=O)c1cc2c(nc1O)CC(c1cccs1)CC2=O (centres undefined)	-12.9%
CC1CCc2nc(O)c(C(=O)NCc3ccccn3)cc2C1 (centres undefined)	-5.86%
CC1CCc2nc(O)c(C(=O)NCCc3cccs3)cc2C1 (centres undefined)	-7.76%
CCOC(=O)N1CCN(c2nc(NCCO)c3ccccc3n2)CC1	-9.59%
CC(=O)c1ccc(-n2ccc3nc(N4CCCC4)ncc3c2=O)cc1	-5.08%
O=c1c2cnc(N3CCCC3)nc2ccn1-c1cccc(F)c1	-0.217%
CCCN1Cc2cc(Br)ccc2OCC1=O	28.2%
CN(c1ncc(C(=O)NCc2ccccc2)c(N)n1)C1CCCCC1	18%
CN(c1ncc(C(=O)Nc2ccccc2)c(N)n1)C1CCCCC1	-0.75%
COc1cc(OC)c(-n2nnc(C(=O)O)c2C)cc1Cl	1.66%
CC(C)=CCC/C(C)=C/CC(C)(C)CNCc1ccco1	-1%

Compound	cytotoxicity at 70.5 h
COc1ccc(OCC(=O)n2nc(C)c(C)c2C)cc1	3.85%
CCOc1cc2c(cc1CCC(=O)O)CCC2	7.85%
CCOc1cc2c(cc1C(=O)O)CCC2	11.4%
Cc1cc(NCCO)nc(N2CCCC2)c1C#N	2.8%
COCc1nc2nc(O)c3c(n2n1)NC(=O)CC3c1ccccc1Cl (centres undefined)	4.14%
CC(=O)N1CCc2nc3sc(C(N)=O)c(N)c3c(C(F)(F)F)c2C1	6.92%
CC(=O)Nc1nc(-c2ccc(C)c(C)c2)c[nH]1	0.35%
O=c1[nH]nc(-c2cccs2)c2sc(N3CCOCC3)nc12	-4.15%
Cc1nc(C#N)c(N2CCC(c3nc(-c4ccccc4)no3)CC2)o1	-4.24%
Oc1nnc(-c2cccs2)c2sc(N3CCCCC3)nc12	-1.82%
O=c1[nH]c2nc(N3CCCC3)ncc2c(=O)n1-c1cccc(F)c1	-16.9%
NC(=O)C1CCN(c2nc3nccc(-c4cccnc4)c3c(=O)[nH]2)CC1	-2.94%
CCN(c1ccc(C(=O)NCCCN2CCCCC2)cc1)S(=O)(=O)CC	-26.7%
COc1ccccc1C1CC(=O)Nc2nc(N3CCCCC3)sc21 (centres undefined)	-18.8%
O=C(NCc1ccccc1)c1nn(C2CCS(=O)(=O)C2)c2c1CCCC2 (centres undefined)	4.17%
Nc1nc2c(s1)C(c1c(F)cccc1Cl)CC(=O)N2 (centres undefined)	1.77%
CC(C)OCCCNC(=O)c1c(-n2cnnn2)sc2c1CCCC2	-25.4%
Cc1cc(O)c(OCC(=O)/N=c2\[nH]c(C)c(C)s2)cn1	5.16%
Cc1cc(O)c(OCC(=O)/N=c2/[nH]c3c(s2)CCC3)cn1	-14.7%
COc1ccc(C2SCC(=O)Nc3n[nH]cc32)c(OC)c1OC (centres undefined)	5.69%
O=C(c1cc(-n2cnnn2)ccc1Cl)N1CCOCC1	-21.4%
Cc1cc(O)c(OCC(=O)Nc2nc3c(s2)CCCCC3)cn1	-1.73%
CC(C)CNC(=O)c1c(-n2cnnn2)sc2c1CCCC2	-4.4%

Compound	cytotoxicity at 70.5 h
COc1cccc(C2CC(=O)Nc3nc(N4CCCCC4)sc32)c1OC (centres undefined)	-6.7%
O=C1CC(c2ccccc2Br)c2sc(N3CCOCC3)nc2N1 (centres undefined)	2.49%
CC(C)Oc1ccccc1C1CC(=O)Nc2nc(N3CCOCC3)sc21 (centres undefined)	-13.2%
COc1ccc(OC)c(C2CC(=O)Nc3nc(N4CCOCC4)sc32)c1 (centres undefined)	4.11%
COc1ccc(C2CC(=O)Nc3nc(N4CCOCC4)sc32)cc1 (centres undefined)	-6.38%
COCCCNC(=O)c1c(-n2cnnn2)sc2c1CCC2	-3.39%
Cn1ncc2c1NC(=O)CSC2c1ccccc1Cl (centres undefined)	14.7%
CC(C)CCn1[nH]c(CNc2ccc(Cl)cc2)nc1=O	0.442%
CNc1nc2c(s1)C(c1cccc(Cl)c1Cl)CC(=O)N2 (centres undefined)	-8.56%
CNc1nc2c(s1)C(c1ccc(Cl)cc1Cl)CC(=O)N2 (centres undefined)	-5.21%
Cc1ccc(N2N=C(C(N)=O)S(=O)(=O)c3cccnc32)cc1	-2.2%
CCOc1cc(=O)n2c(c1C(=O)OCc1ccc(C)cc1)CCCC2	24.4%
CC1CCN(c2ncc3c(n2)CN(c2ccccc2)C3=O)CC1	-9.08%
CCn1nccc1CNC(=O)NC1CCCCC1	6.27%
Cc1cc(=O)n(CC(=O)NCC2CCCO2)c(-c2cccc(Cl)c2)n1 (centres undefined)	-2.89%
Cc1cc(=O)n(CC(=O)NCCC(C)C)c(-c2cccc(Cl)c2)n1	-1.79%
CN1CCCCC(C2CCN(S(=O)(=O)c3cn(C)cn3)CC2)C1=O (centres undefined)	0.674%
O=C(c1ccnc(C2CCNCC2)c1)N1CCCC(CO)C1 (centres undefined)	-2.32%
O=C1CCOC[C@]2(CN(Cc3ccccc3)C[C@H]2c2cccnc2)N1	15.4%
CC(C)N1CCOC(c2ccnc(N(C)C)n2)C1 (centres undefined)	-3.86%
COCC(=O)NC(Cc1cc(N(C)C)nc(C2CC2)n1)c1ccccc1 (centres undefined)	-2.08%
Cc1ccc(OCCCNC(=O)C2(C)CC(=O)N3C=CC=CC3=N2)cc1 (centres undefined)	-3.61%
NC(=O)CN1CCC(c2csc(Nc3cnccn3)n2)CC1	-4.74%

Compound	cytotoxicity at 70.5 h
COCC(=O)NCc1ccc(-c2ccccc2C(=O)O)cn1	-3.58%
FC(F)(F)c1cc(C2CCCN(c3ncccn3)C2)n2ccnc2n1 (centres undefined)	-2.5%
Cc1cc(C)nc(Nc2nccnc2C2CCCN(CCO)C2)n1 (centres undefined)	-3.54%
Cc1ccccc1OC1CCN(CC(=O)Nc2c(C)nn(C)c2C)CC1	1.35%
Cc1nc(CCC(N)=O)cc(C2CCCN2S(C)(=O)=O)n1 (centres undefined)	0.687%
O=C(c1cc2cccc(F)c2[nH]1)N1C[C@@H](O)[C@H](N2CCOCC2)C1	-5.87%
COCCNC(=O)CN1CC=C(n2c(C)nc(=O)c3ccccc32)CC1	0.895%
O=C(c1ccc2c(c1)CCCC2)N1CCn2ncnc2C1	2.9%
Cc1nn(C)c(C)c1-c1cnc(CC2CCNC2)cn1 (centres undefined)	-4.3%
Cc1cc(C)nc(Nc2nccnc2C2CCCN(C(C)C)C2)n1 (centres undefined)	1.6%
CNc1cncc(C2CCN(C(=O)c3cnco3)CC2)n1	9.47%
CCc1cc(C(=O)N2CCCC(c3cc(=O)nc4n3CCC4)C2)no1 (centres undefined)	-6.36%
Cc1cc(C)n(CCNCc2cc(-c3ccc(Cl)cc3)c[nH]c2=O)n1	-3.88%
Cc1ccc(-c2cc(N)c(=O)n(C(C)C(=O)NC(C)C)n2)o1 (centres undefined)	-11.9%
Cc1cc2c(cc1C)OC1(C=C2)CCN(CC(=O)N2CCOCC2)CC1	-8.77%
Cc1sc(C(=O)NC(C)C)cc1S(=O)(=O)N(C)C	-5.26%
COCCNC(=O)Cn1c(-c2ccco2)cc2cccnc21	-8.41%
COCCNC(=O)C(C)n1nc(-c2ccco2)cc(N)c1=O (centres undefined)	23.7%
COCCCNC(=O)C(C)n1nc(-c2ccco2)cc(N)c1=O (centres undefined)	-6.27%
CCCNC(=O)C(C)n1nc(-c2ccc(C)o2)cc(N)c1=O (centres undefined)	-1.77%
CCC(=O)N1CCC(c2nc(N3CCOCC3)ncc2S(C)(=O)=O)CC1	-9.6%
CC(C)(C)C(=O)N1CCC(c2noc(C3CCC(=O)N3)n2)CC1 (centres undefined)	-6.7%
Cc1cc(Nc2nc(C)cc(C)n2)cc(C2CCCN2)n1 (centres undefined)	-7.57%

Compound	cytotoxicity at 70.5 h
CS(=O)(=O)N[C@@H]1CN(Cc2ccccc2)C[C@H]1O	-5.89%
Cc1cc(N(C)C)nc(C2COCCN2Cc2cc(C)on2)n1 (centres undefined)	-7.49%
Cc1noc(C)c1CC(=O)N1CCC(c2ccn3nccc3n2)CC1	0.22%
Cc1cn[nH]c1C1COCCN1C(=O)c1ccc2c(c1)CCCC2 (centres undefined)	-3.65%
Cc1cc(NC2CC3(CCN(Cc4csc(C)n4)C3)C2)ncn1 (centres undefined)	-9.59%
Cc1cc(N2CCCC(O)(CN(C)C(=O)CCN)C2)c2cnccc2n1 (centres undefined)	26.9%
CCOC(=O)N1CCN(c2nc(NC3CC3)c3ccccc3n2)CC1	3.06%
CNCc1ccc(OCc2ccc3c(c2)OCCO3)cc1	-3.57%
CC(C)(C)NCc1ccc(OCc2ccc3c(c2)OCCO3)cc1	8.79%
Cc1nc(Nc2cnccn2)cc(C2CCCN2)n1 (centres undefined)	19.5%
COC(C)(C)C(=O)N1CCC(c2cc(CN(C)C)n(C)n2)CC1	-10.8%
CN1CCCC(c2ccc(N3CCOCC3)cn2)C1 (centres undefined)	-3.9%
Cc1cc(C)n(CCCn2cncc2-c2ccc3c(c2)CC(C)N3C)n1 (centres undefined)	2%
Cc1nn(C)c(C)c1CCn1cncc1-c1ccc2c(c1)CC(C)N2C (centres undefined)	4.43%
CCN1c2ccc(-c3cncn3CCCn3ccnc3C)cc2CC1C (centres undefined)	-0.494%
c1cc(CNc2cnc(C3CCCN3)cn2)ccn1 (centres undefined)	-1.63%
CN(CC(=O)NC(Cc1ccsc1)c1cccnc1)Cc1ccccn1 (centres undefined)	31.3%
Cc1c(CN2CCc3nc4sccc4c(=O)n3CC2)cnn1C	-6.65%
COc1ccc(C(C)N(C)Cc2c(C3CC3)[nH]c3ncccc23)cc1 (centres undefined)	-3.9%
CN1C[C@@H]2CN(C(=O)NCc3ccccc3)CCC[C@]2(C(=O)O)C1	-1.78%
CC(C)N1C[C@@H]2CN(C(=O)NCc3ccccc3)CCC[C@]2(C(=O)O)C1	-4.97%
CC(C)NC(=O)C1(CC2CC(c3ccc(F)cc3)=NO2)CCNCC1 (centres undefined)	24.3%
